This note sets out measurements from patent US20250049930A1, “PROTAC MOLECULES TARGETING FOXP3 AND USES THEREOF” (CEDARS-SINAI MEDICAL CENTER, priority 2022, published 2025).

Residues, ends and D or L forms follow the SMILES beside them. *: point of attachment. X1 = O=C1CCC(N2C(=O)c3cccc(*)c3C2=O)C(=O)N1; PEG4 = NCCOCCOCCOCCOCCC(=O)O

The target of one experiment is cereblon (Homo sapiens, UniProt Q96SW2). In words: SPR assay, binary complex. The conditions noted are these: 25° C., binary complex of cereblon and P-FoxP3. The class given is binding. The protocol:
The SPR assay for ternary complex cooperativity was performed by BOC Sciences who provided the following details: Various concentrations of cereblon were dissolved in water and manually printed onto the 47 nm gold-coated PlexArray Nanocapture Sensor Chip (Plexera Bioscience, Seattle, WA) at 40% humidity. Each concentration was printed in replicate, and each spot contained […] of sample solution. The chip was incubated overnight in 80% humidity at 4° C., and rinsed with 10×PBST for 10 minutes, 1×PBST for 10 minutes, and deionized water twice for 10 minutes. The chip was then blocked with 5% non-fat milk in water overnight, washed as before, and then dried under a stream of nitrogen.
SPR imaging measurements were performed with PlexAray HT (Plexera Bioscience, Seattle, WA, US). Buffers and samples were injected by a non-pulsatile piston pump into the 30 μL flow cell. […] The signal changes after binding and washing (in AU) are recorded as the assay value. Selected protein-grafted regions in the SPR images were analyzed, and the average reflectivity variations of the chosen areas were plotted as a function of time. Real-time binding signals were recorded and analyzed by Data Analysis Module (DAM, Plexera Bioscience, Seattle, WA, US). […]

The subject of the next experiment is Tregs. The experiment can be described thus: Treg immunosuppression co-culture assay with mouse splenocytes (CFSE dilution, TNFα). The class given is cell-based. The conditions noted are these: mouse CD4+ splenocytes treated 72 hours, co-cultured with effector cells stimulated with αCD3 and αCD28. On the procedure: FIGS. 3A-3D depict that PF decreased the immunosuppressive function of Tregs in vitro and decreased tumor growth in mice. To treat Tregs, CD4+ splenocytes were isolated and treated with PF or various controls for 72 hours. To assess the immunosuppressive effects of these cells, they were washed and co-cultured with effector cells, which were stimulated with antibodies to CD3 and CD28 in vitro (FIGS. 3A-3C). CD8 proliferation was measured using a CFSE dilution assay. To assess CD8+ effector cells, CD4 negative splenocytes were CFSE labeled and CFSE dilution was measured in CD8+ cells by flow cytometry (FIG. 3A). In the same experiment, CD8+ lymphocyte activation was assessed by measuring TNFα (FIG. 3B). Also, CD4+ lymphocyte activation was assessed by measuring TNFα (FIG. 3C). Mice tumors were established by injection RENCA cells subcutaneously in the flank of Balb/C mice (5-7 mice per group) (FIG. 3D). 10 days later, mice were treated i.p., twice a week throughout the experiment, with the indicated drugs and tumor growth was monitored. Pomalidomide conjugated to (PEG)4 (PROTAC-control; PC) and P60 served as controls. […]
To assess T cell activation in vitro, single suspension of mouse splenocytes were separated into CD4 positive (+) and negative (−) cells using EasySep Mouse CD4+ selection kit (STEMCELL technologies, Vancouver, BC, Canada). […] To study effector cell function, CD4+ and CD4− cells were cocultured (1.2 ratio) with treated-Treg and stimulated with αCD3 (10 μg/mL) and αCD28 (5 μg/mL) for 3 days; percent of CD4+ or CD8+ cells staining for intracellular FoxP3, CFSE, or TNFα were assessed by flow cytometry (LSR II, BD Biosciences, San Jose, CA 95131).
Tregs play a central role in suppressing and regulating the immune response. […] CD8 proliferation was measured using a CFSE dilution assay. To assess CD8+ effector cells, CD4 negative splenocytes were CFSE labeled and CFSE dilution was measured in CD8+ cells by flow cytometry (FIG. 3A). CD8+ lymphocyte activation was assessed by measuring TNFα (FIG. 3B). Also, CD4+ lymphocyte activation was assessed by measuring TNFα (FIG. 3C). […]

For the next experiment, the system named is RENCA cells. In words: RENCA cell growth in vitro. In kind it is cell-based, mouse. As to conditions: 0.002, 0.02, 0.2, or 2 μM, 48 hours. On the procedure:
That is, the tumor in the P60 treated tumor grew at the same rate as the saline treated mice. Further, RENCA cells (20×10^4/well) were seeded in 12 well plates and treated with PF or PC at 0.002, 0.02, 0.2, or 2 μM. […] The first approach involved depleting CD8+ lymphocytes, which are known to mediate antitumor immunity.

Chain of cereblon (Q96SW2 whole entry): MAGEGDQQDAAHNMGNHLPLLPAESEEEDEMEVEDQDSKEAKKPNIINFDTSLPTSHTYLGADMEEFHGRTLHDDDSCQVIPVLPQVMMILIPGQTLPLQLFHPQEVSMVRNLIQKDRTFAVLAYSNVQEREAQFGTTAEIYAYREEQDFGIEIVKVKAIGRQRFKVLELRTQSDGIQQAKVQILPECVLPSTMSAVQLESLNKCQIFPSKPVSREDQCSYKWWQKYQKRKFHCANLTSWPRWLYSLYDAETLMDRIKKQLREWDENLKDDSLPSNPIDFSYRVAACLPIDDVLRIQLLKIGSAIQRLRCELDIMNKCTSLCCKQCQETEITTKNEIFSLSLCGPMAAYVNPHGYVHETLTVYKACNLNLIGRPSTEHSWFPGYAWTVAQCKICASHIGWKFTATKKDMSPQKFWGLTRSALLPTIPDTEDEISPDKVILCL

For the compound `CSCC[C@H](NC(=O)[C@H](C)NC(=O)[C@H](Cc1ccccc1)NC(=O)[C@H](Cc1ccccc1)NC(=O)[C@@H]1CCCN1C(=O)[C@H](Cc1c[nH]c2ccccc12)NC(=O)[C@H](CCSC)NC(=O)[C@H](CCCCN)NC(=O)[C@H](CCCNC(=N)N)NC(=O)[C@H](Cc1ccccc1)NC(=O)[C@H](CO)NC(=O)[C@H](CCC(N)=O)NC(=O)[C@H](Cc1ccccc1)NC(=O)[C@H](CC(=O)O)NC(=O)[C@H](CCCNC(=N)N)NC(=O)CCOCCOCCOCCOCCNc1cccc2c1C(=O)N(C1CCC(=O)NC1=O)C2=O)C(=O)O` (some centres unmarked) [PF, Pomalidomide-PEG4-RDFQSFRKMWPFFAM] ({X1-PEG4}-RDFQSFRKMWPFFAM-OH), on cereblon, binding was characterised by a dissociation constant (Kd) of 987 nM. In addition, in the experiment with Tregs, the “suppression of CD4+ effector lymphocyte activation by treated CD4+ cells (TNFα)” value is given as “less capable of suppressing the activation of CD4+ effector lymphocytes”, the “suppression of CD8+ lymphocyte activation by treated CD4+ lymphocytes (TNFα expression)” value is on record as “less capable of suppressing” and the “suppression of CD8+ lymphocyte proliferation by treated CD4+ lymphocytes (CFSE dilution)” value was “less capable of suppressing”. Also, in the experiment with RENCA cells, the “RENCA growth in vitro (cell count)” value is “did not alter RENCA growth in vitro”.

A word on the Kd: it is the free concentration of one partner at which half of the binding sites on the other are occupied at equilibrium, for simple one-to-one binding.
